# What was measured:
# [1] = biological target: Full length WRN protein (aa 2-1432) (Homo sapiens (Human), UniProt Q14191); test: WRN ATPase ADP-Glo biochemical assay, Assay Format B (100 μM ATP); conditions: 0.25 nM WRN, 100 nM C6.18 ssDNA, 60 min preincubation, read-out: ATPase ADPGlo AC50 (uM)- Assay Format B
# HCT116 cells = test: HCT116 (MSI) 7 day viability, CellTiter Glo; format: cell-based; conditions: Homo sapiens, HCT-116, 168 h, 7 days, read-out: HCT116 (MSI) Viability 7 Day Abs AC50
# Procedure: (§1) Compounds were dissolved in DMSO to a concentration of 10 mM. Compounds were then serially diluted in 10 3-fold steps in DMSO using an EVO (Tecan). Plates were then spun down for 1 minute at 1,000 RPM at room temperature.
# (§2) The colon carcinoma lines HCT116 (RRID: CVCL_0291) and HT29 (RRID: CVCL_0320) were obtained from ATCC. […] All cells were maintained at 37° C. with 5% CO2 incubator.
# (§3) After harvesting, cells were spun down for 5 minutes at 1200 RPM. Cells were resuspended in 10 mL of growth media and counted using Countess (Thermo Fisher). Cell concentrations were adjusted to 50 cells/well for HCT116 and 500 cells/well for HT29. 50 μL of diluted cells were added to compound treated 384 well plates using a 12 channel, 300 uL electronic handheld pipette (Integra). Cell treated plates were placed in 37 C with 5% CO2 incubator for 7 days.
# (§4) Afterwards, cells were removed from incubator and equilibrated to room temperature for 15 minutes. 35 uL of CellTiter Glo (Promega #G7573) reagent were added to each well using a 12 channel, 300 uL electronic handheld pipette (Integra). Plates were incubated for 20 minutes at room temperature. Luminescence quantification was performed using Envision (PerkinElmer).
# (§5) For data analysis, the assay background signal was determined in wells containing medium, but no cells. Potencies were calculated by linear least squares fit to the four-parameter logistic IC50 equation. The reported IC50 values are the geometrical mean of at least 2 independent replicates.
# HT29 cells = test: HT29 (MSS) 7 day viability, CellTiter Glo; format: cell-based; conditions: Homo sapiens, HT-29, 168 h, 7 days, read-out: HT29 (MSS) Viability 7 Day CTGAbs AC50
# Procedure: as §1, §2, §3, §4, §5
# Sequence of Full length WRN protein (aa 2-1432) (Q14191 2-1432): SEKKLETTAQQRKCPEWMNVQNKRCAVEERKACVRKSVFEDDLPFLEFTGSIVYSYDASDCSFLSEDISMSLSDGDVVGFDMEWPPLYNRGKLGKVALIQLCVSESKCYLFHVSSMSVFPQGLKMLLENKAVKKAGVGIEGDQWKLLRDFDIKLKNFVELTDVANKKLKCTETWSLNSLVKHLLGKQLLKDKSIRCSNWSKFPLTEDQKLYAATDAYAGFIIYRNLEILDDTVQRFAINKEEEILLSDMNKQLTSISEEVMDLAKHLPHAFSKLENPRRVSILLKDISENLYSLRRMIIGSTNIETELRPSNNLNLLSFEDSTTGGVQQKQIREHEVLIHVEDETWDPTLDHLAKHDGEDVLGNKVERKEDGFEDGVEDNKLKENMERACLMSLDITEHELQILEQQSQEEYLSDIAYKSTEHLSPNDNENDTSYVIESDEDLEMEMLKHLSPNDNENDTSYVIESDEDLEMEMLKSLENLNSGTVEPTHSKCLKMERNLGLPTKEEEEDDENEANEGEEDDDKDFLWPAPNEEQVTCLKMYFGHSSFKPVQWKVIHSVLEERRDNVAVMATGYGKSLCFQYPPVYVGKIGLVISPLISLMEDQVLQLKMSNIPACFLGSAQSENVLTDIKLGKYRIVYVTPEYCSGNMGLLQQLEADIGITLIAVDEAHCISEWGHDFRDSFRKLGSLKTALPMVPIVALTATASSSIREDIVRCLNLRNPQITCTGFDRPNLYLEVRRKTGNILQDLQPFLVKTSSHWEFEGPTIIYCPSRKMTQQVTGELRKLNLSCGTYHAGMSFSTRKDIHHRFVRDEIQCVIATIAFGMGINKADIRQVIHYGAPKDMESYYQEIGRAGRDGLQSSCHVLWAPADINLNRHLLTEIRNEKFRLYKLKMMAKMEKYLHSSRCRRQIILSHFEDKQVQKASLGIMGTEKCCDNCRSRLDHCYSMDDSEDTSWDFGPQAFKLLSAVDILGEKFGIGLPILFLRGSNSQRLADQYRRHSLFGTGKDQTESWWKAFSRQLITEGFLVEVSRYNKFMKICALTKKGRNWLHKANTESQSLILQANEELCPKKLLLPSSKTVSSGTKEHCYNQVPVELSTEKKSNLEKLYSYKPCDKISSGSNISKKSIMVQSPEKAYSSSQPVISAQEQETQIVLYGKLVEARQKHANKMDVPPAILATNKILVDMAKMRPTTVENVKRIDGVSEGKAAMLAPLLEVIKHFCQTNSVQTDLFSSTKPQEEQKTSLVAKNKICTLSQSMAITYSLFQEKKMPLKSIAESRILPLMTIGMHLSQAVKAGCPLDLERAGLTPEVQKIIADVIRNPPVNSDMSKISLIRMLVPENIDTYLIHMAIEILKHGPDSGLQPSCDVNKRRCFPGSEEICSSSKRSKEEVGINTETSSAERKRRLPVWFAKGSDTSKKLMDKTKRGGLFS
Compound,AC50 [1] [µM],AC50 (HCT116 cells) [nM],AC50 (HT29 cells) [nM]
"C=CC(=O)N1CCc2nn(-c3ccc(C4CC4)cc3)c3c2C(C1)N(C(=O)c1cnc(C(F)(F)F)cc1NC)CC3 (stereo not drawn) [Compound 179, 1-(2-(4-cyclopropylphenyl)-5-(4-(methylamino)-6-(trifluoromethyl)nicotinoyl)-2,3,4,5,5a,6,8,9-octahydro-7H-1,2,5,7-tetraazabenzo[cd]azulen-7-yl)prop-2-en-1-one]",0.015 to 0.055,100 to 250,> 3000
"C=CC(=O)N1CCc2nn(-c3ccc(CC(F)(F)F)cc3O)c3c2C(C1)N(C(=O)c1cnc(C(F)(F)F)cc1N)CC3 (stereo not drawn) [Compound 180, 1-(5-(4-amino-6-(trifluoromethyl)nicotinoyl)-2-(2-hydroxy-4-(2,2,2-trifluoroethyl)phenyl)-2,3,4,5,5a,6,8,9-octahydro-7H-1,2,5,7-tetraazabenzo[cd]azulen-7-yl)prop-2-en-1-one]",0.015 to 0.055,1 to 100,> 3000
"C=CC(=O)N1CCc2nn(-c3ccc(C4CCC4)cc3)c3c2C(C1)N(C(=O)c1cnc2c(C(F)(F)F)nn(C)c2c1)CC3 (stereo not drawn) [Compound 185, 1-(2-(4-cyclobutylphenyl)-5-(1-methyl-3-(trifluoromethyl)-1H-pyrazolo[4,3-b]pyridine-6-carbonyl)-2,3,4,5,5a,6,8,9-octahydro-7H-1,2,5,7-tetraazabenzo[cd]azulen-7-yl)prop-2-en-1-one]",0.015 to 0.055,1 to 100,1000 to 3000
"C=CC(=O)N1CCc2nn(-c3ccc(C4CC4)cc3)c3c2C(C1)N(C(=O)c1c(N)cc(Br)c2[nH]cnc12)CC3 (stereo not drawn) [Compound 188, 1-(5-(5-amino-7-bromo-1H-benzo[d]imidazole-4-carbonyl)-2-(4-cyclopropylphenyl)-2,3,4,5,5a,6,8,9-octahydro-7H-1,2,5,7-tetraazabenzo[cd]azulen-7-yl)prop-2-en-1-one]",0.0015 to 0.005,1 to 100,> 3000
"C=CC(=O)N1CC(C)c2nn(-c3ccc(C4CC4)cc3O)c3c2C(C1)N(C(=O)c1cnc(Br)cc1N)CC3 (stereo not drawn) [Compound 190, 1-(5-(4-amino-6-bromonicotinoyl)-2-(4-cyclopropyl-2-hydroxyphenyl)-9-methyl-2,3,4,5,5a,6,8,9-octahydro-7H-1,2,5,7-tetraazabenzo[cd]azulen-7-yl)prop-2-en-1-one]",0.005 to 0.015,1 to 100,> 3000
"C=CC(=O)N1CCc2nn(-c3ccc(C4CC4)cc3O)c3c2C(C1)N(C(=O)c1cnc(Br)cc1N)CC3 (stereo not drawn) [Compound 191, 1-(5-(4-amino-6-bromonicotinoyl)-2-(4-cyclopropyl-2-hydroxyphenyl)-2,3,4,5,5a,6,8,9-octahydro-7H-1,2,5,7-tetraazabenzo[cd]azulen-7-yl)prop-2-en-1-one]",0.005 to 0.015,1 to 100,> 3000
"C=CC(=O)N1CCc2nn(-c3ccc(C4CC4)cc3O)c3c2C(C1)N(C(=O)c1cnc(C(F)(F)F)nc1N)CC3 (stereo not drawn) [Compound 197, 1-(5-(4-amino-2-(trifluoromethyl)pyrimidine-5-carbonyl)-2-(4-cyclopropyl-2-hydroxyphenyl)-2,3,4,5,5a,6,8,9-octahydro-7H-1,2,5,7-tetraazabenzo[cd]azulen-7-yl)prop-2-en-1-one]",0.005 to 0.015,1 to 100,> 3000
"C=CC(=O)N1CCc2nn(-c3ccc(C4CC4)c(F)c3O)c3c2C(C1)N(C(=O)c1cnc(C(F)(F)F)cc1N)CC3 (stereo not drawn) [Compound 203, 1-(5-(4-amino-6-(trifluoromethyl)nicotinoyl)-2-(4-cyclopropyl-3-fluoro-2-hydroxyphenyl)-2,3,4,5,5a,6,8,9-octahydro-7H-1,2,5,7-tetraazabenzo[cd]azulen-7-yl)prop-2-en-1-one]",0.005 to 0.015,1 to 100,> 3000
"C=CC(=O)N1CCc2nn(-c3ccc(C4CC4)cc3)c3c2C(C1)N(C(=O)c1cnc(SC)nc1N)CC3 (stereo not drawn) [Compound 204, 1-(5-(4-amino-2-(methylthio)pyrimidine-5-carbonyl)-2-(4-cyclopropylphenyl)-2,3,4,5,5a,6,8,9-octahydro-7H-1,2,5,7-tetraazabenzo[cd]azulen-7-yl)prop-2-en-1-one]",0.015 to 0.055,1 to 100,> 3000
"C=CC(=O)N1CC(OC2CN(C(C)=O)C2)c2nn(-c3ccc(C4CCC4)cc3)c3c2C(C1)N(C(=O)c1ccc(C(F)(F)F)nc1)CC3 (stereo not drawn) [Compound 205, 1-(9-((1-acetylazetidin-3-yl)oxy)-2-(4-cyclobutylphenyl)-5-(6-(trifluoromethyl)nicotinoyl)-2,3,4,5,5a,6,8,9-octahydro-7H-1,2,5,7-tetraazabenzo[cd]azulen-7-yl)prop-2-en-1-one]",0.005 to 0.015,1 to 100,> 3000
"C=CC(=O)N1CCc2nn(-c3ccc(C4CC4)cc3O)c3c2C(C1)N(C(=O)c1cc(C#N)c(C(F)(F)F)cc1N)CC3 (stereo not drawn) [Compound 207, 5-(7-acryloyl-2-(4-cyclopropyl-2-hydroxyphenyl)-3,4,5,5a,6,7,8,9-octahydro-2H-1,2,5,7-tetraazabenzo[cd]azulene-5-carbonyl)-4-amino-2-(trifluoromethyl) benzonitrile]",0.005 to 0.015,1 to 100,> 3000
"C=CC(=O)N1CCc2nn(-c3ccc(C4CC4)cc3O)c3c2C(C1)N(C(=O)c1cnc(C(F)(F)F)c(C)c1N)CC3 (stereo not drawn) [Compound 208, 1-(5-(4-amino-5-methyl-6-(trifluoromethyl)nicotinoyl)-2-(4-cyclopropyl-2-hydroxyphenyl)-2,3,4,5,5a,6,8,9-octahydro-7H-1,2,5,7-tetraazabenzo[cd]azulen-7-yl)prop-2-en-1-one]",0.0015 to 0.005,1 to 100,> 3000
"C=CC(=O)N1CCc2nn(-c3ccc(C4CC4)cc3O)c3c2C(C1)N(C(=O)c1cnc(SC(F)(F)F)cc1N)CC3 (stereo not drawn) [Compound 209, 1-(5-(4-amino-6-((trifluoromethyl)thio)nicotinoyl)-2-(4-cyclopropyl-2-hydroxyphenyl)-2,3,4,5,5a,6,8,9-octahydro-7H-1,2,5,7-tetraazabenzo[cd]azulen-7-yl)prop-2-en-1-one]",0.0015 to 0.005,1 to 100,> 3000
"C=CC(=O)N1CCc2nn(-c3ccc(C4CC4)cc3O)c3c2C(C1)N(C(=O)c1cnc(Cl)c(F)c1N)CC3 (stereo not drawn) [Compound 210, 1-(5-(4-amino-6-chloro-5-fluoronicotinoyl)-2-(4-cyclopropyl-2-hydroxyphenyl)-2,3,4,5,5a,6,8,9-octahydro-7H-1,2,5,7-tetraazabenzo[cd]azulen-7-yl)prop-2-en-1-one]",0.0015 to 0.005,1 to 100,> 3000
"C=CC(=O)N1CCc2nn(-c3ccc(C4CC4)cc3O)c3c2C(C1)N(C(=O)c1cnc(SC)cc1N)CC3 (stereo not drawn) [Compound 211, 1-(5-(4-amino-6-(methylthio)nicotinoyl)-2-(4-cyclopropyl-2-hydroxyphenyl)-2,3,4,5,5a,6,8,9-octahydro-7H-1,2,5,7-tetraazabenzo[cd]azulen-7-yl)prop-2-en-1-one]",0.0015 to 0.005,1 to 100,> 3000
"C=CC(=O)N1CCc2nn(-c3ccc(C4CC4)cc3O)c3c2C(C1)N(C(=O)c1c(N)cc(Br)c2nc[nH]c12)CC3 (stereo not drawn) [Compound 212, 1-(5-(6-amino-4-bromo-1H-benzo[d]imidazole-7-carbonyl)-2-(4-cyclopropyl-2-hydroxyphenyl)-2,3,4,5,5a,6,8,9-octahydro-7H-1,2,5,7-tetraazabenzo[cd]azulen-7-yl)prop-2-en-1-one]",0.0015 to 0.005,1 to 100,> 3000
"C=CC(=O)N1CCc2nn(-c3ccc(C4CC4)cc3O)c3c2C(C1)N(C(=O)c1ccc(C(F)(F)F)nc1)CC3 (stereo not drawn) [Compound 213, 1-(2-(4-cyclopropyl-2-hydroxyphenyl)-5-(6-(trifluoromethyl)nicotinoyl)-2,3,4,5,5a,6,8,9-octahydro-7H-1,2,5,7-tetraazabenzo[cd]azulen-7-yl)prop-2-en-1-one]",0.005 to 0.015,1 to 100,> 3000
"C=CC(=O)N1CCc2nn(-c3ccc(C4CC4)cc3O)c3c2C(C1)N(C(=O)c1cnc(SC(F)(F)F)c(F)c1N)CC3 (stereo not drawn) [Compound 214, 1-(5-(4-amino-5-fluoro-6-((trifluoromethyl)thio)nicotinoyl)-2-(4-cyclopropyl-2-hydroxyphenyl)-2,3,4,5,5a,6,8,9-octahydro-7H-1,2,5,7-tetraazabenzo[cd]azulen-7-yl)prop-2-en-1-one]",0.005 to 0.015,1 to 100,> 3000
"C=CC(=O)N1CCc2nn(-c3ccc(C4CC4)c(F)c3O)c3c2C(C1)N(C(=O)c1cnc(Br)cc1N)CC3 (stereo not drawn) [Compound 215, 1-(5-(4-amino-6-bromonicotinoyl)-2-(4-cyclopropyl-3-fluoro-2-hydroxyphenyl)-2,3,4,5,5a,6,8,9-octahydro-7H-1,2,5,7-tetraazabenzo[cd]azulen-7-yl)prop-2-en-1-one]",0.0015 to 0.005,1 to 100,> 3000

# Source: patent US20250346600A1, “TRICYCLIC DERIVATIVES AND RELATED USES” (MOMA Therapeutics, Inc., priority 2023, published 2025)
